Test results as given in patent US5679787A, “Process for isomerization of compound of aldose structure into compound of ketose structure, and isomerization agent or accelerator used therein” (priority 1992, dated 1997).

Columns and labels:
[1] = Isomerization without enzyme (Example 3), mannose; details: remark (2): reaction time 6 h, initial pH 10.0-10.6; for Isomerization ratio Mannose NaOH: blank 3.9-19.5%; for Isomerization ratio Mannose Electrolytic water: blank 0.4-1.2%
[2] = Isomerization without enzyme (Example 3), glucose; details: remark (1): initial pH 8.0-8.53; for Isomerization ratio Glucose NaOH: blank 32.3%; for Isomerization ratio Glucose Electrolytic water: blank 2.1-3.1%
Experimental: 200 μl of the 14% or 28% glucose solution and 200 μl of the organogermanium compound solution (pH 8.00 or 8.53) were placed in a small test tube. Also, 200 μl of the 14% or 28% glucose solution and 200 μl of the weakly alkaline electrolytic water were placed in a small test tube. Each test tube was thoroughly shaken and then placed in a water bath of 80° C. to give rise to a reaction. […] Thereafter, the mixture was diluted 100-fold with deionized water to determine the amount of formed fructose and the amount of residual glucose by high-performance liquid chromatography using 7A (a column) manufactured by Shimadzu Corp. […]

[3] = Isomerization without enzyme (Example 3), arabinose; details: remark (2):, initial pH 10.0-10.6; for Isomerization ratio Arabinose NaOH: blank 3.9-19.5%; for Isomerization ratio Arabinose Electrolytic water: blank 0.4-1.2%
[4] = Isomerization without enzyme (Example 3), ribose; details: remark (2): reaction time 6 h, initial pH 10.0-10.6; for Isomerization ratio Ribose NaOH: blank 3.9-19.5%; for Isomerization ratio Ribose Electrolytic water: blank 0.4-1.2%
[5] = Isomerization without enzyme (Example 3), lactose; details: remark (3): reaction time 6 h, initial pH 10.0-11.0; for Isomerization ratio Lactose NaOH: blank 34.0-38.6%; for Isomerization ratio Lactose Electrolytic water: blank 0-0.4%
[6] = Isomerization without enzyme (Example 3), xylose; details: remark (2): reaction time 6 h, initial pH 10.0-10.6; for Isomerization ratio Xylose NaOH: blank 3.9-19.5%; for Isomerization ratio Xylose Electrolytic water: blank 0.4-1.2%
Experimental: [The procedure below names another target; the source says it served here with some conditions changed.] (§1) 200 μl of the 14% or 28% glucose solution and 200 μl of the organogermanium compound solution (pH 8.00 or 8.53) were placed in a small test tube. Also, 200 μl of the 14% or 28% glucose solution and 200 μl of the weakly alkaline electrolytic water were placed in a small test tube. Each test tube was thoroughly shaken and then placed in a water bath of 80° C. to give rise to a reaction. 1-3 hours later, 50 μl of the reaction mixture was added to 50 μl of 0.5N HClO4 to terminate the reaction. Thereafter, the mixture was diluted 100-fold with deionized water to determine the amount of formed fructose and the amount of residual glucose by high-performance liquid chromatography using 7A (a column) manufactured by Shimadzu Corp.
Other compounds represented by formula (I) were subjected to 3-hour isomerization in the same manner as in Example 2.

[7] = Isomerization without enzyme (Example 3), maltose; details: remark (3): reaction time 6 h, initial pH 10.0-11.0; for Isomerization ratio Maltose NaOH: blank 34.0-38.6%; for Isomerization ratio Maltose Electrolytic water: blank 0-0.4%
glucose isomerase = assay: Enzymatic isomerization of glucose into fructose in presence of organogermanium compound (Example 1); format: biochemical, Streptomyces griseofuscus S-41; details: 60° C., pH 8.0, substrate solution 40% glucose and 1.2M organogermanium compound, blank 50%
Experimental: A solution containing 40% glucose and 1.2M organogermanium compound was prepared according to the following procedure. 0.8 g of anhydrous glucose was dissolved in 0.8 ml of deionized water. To the solution was added, in small portions, 0.407 g of the organogermanium compound (1) as an isomerization accelerator of the present invention [a compound represented by formula (II) wherein n=1, R1 =R2 =R3 and X1 =OH] while the pH of the solution was maintained at very weak alkalinity, to completely dissolve the compound in the solution. Thereto was added 4.9 mg of magnesium sulfate, and the pH of the resulting mixture was adjusted to 8.0. Then, deionized water was added to make the total volume 2.0 ml, whereby a substrate solution was prepared.
Two other substrate solutions containing the organogermanium compounds (18) [a compound represented by formula (II) wherein n=1, R1 =R2 =H, R3 =NH2 and X1 =OH] and (23) [a compound represented by formula (II) wherein n=1, R1 =H, R2 =C6 H5, R3 =NH2 and X1 =OH], respectively, were prepared in the same manner as above except that the organogermanium compounds (18) and (23) were used in amounts of 0.443 g and 0.638 g, respectively (these amounts corresponded to 1.2M of germanium).
An isomerization enzyme (glucose isomerase) extracted from the cells of Streptomyces griseofuscus S-41 was purified according to a known method using an ion exchange column, a gel filtration column or the like, until a single band was obtained electrophoretically. The resulting purified enzyme was used as a standard enzyme.
In a small test tube were placed 0.7 ml of the above substrate solution, 0.1 ml of a 200 mM MOPS buffer solution (pH 8.0) and 0.2 ml of a solution containing the above-prepared standard enzyme (5.69 mg/ml). […] The amount of formed fructose in the microvial was determined by high-performance liquid chromatography using a column [LC7A, SCR-101 (N) manufactured by Shimadzu Corp.] to examine the change with time, of ratio of isomerization of glucose into fructose.

[8] = Isomerization of glucose without enzyme, weakly alkaline electrolytic water or NaOH (Example 2)
Experimental: Water was passed through an apparatus for electrolysis [e.g. Microcluster (trade name) manufactured by Asahi Glass Co., Ltd.]. The alkaline portion of the resulting electrolytic water was taken to use as a weakly alkaline electrolytic water.
14 g or 28 g of anhydrous glucose was dissolved in about 80 ml of the weakly alkaline electrolytic water prepared above. The same electrolytic water was further added to make the total volume 100 ml, whereby a 14% glucose solution and a 28% glucose solution were prepared. The 14% glucose solution had pH 9.1 and the 28% glucose solution had pH 8.61, right after the preparation.
1.847 g of the organogermanium compound (18) was weighed and added to about 2 ml of deionized water. The mixture was made weakly alkaline (pH 8.00 or 8.53) with a small amount of sodium hydroxide. The same deionized water was further added to make the total volume of 3 ml. The final concentration of the compound (18) in the solution was 1.67M.
as §1

Row | Structure (SMILES) | Isomerization ratio Mannose NaOH [1] [%] | Isomerization ratio Mannose Electrolytic water [1] [%] | Isomerization ratio Glucose NaOH [2] [%] | Isomerization ratio Glucose Electrolytic water [2] [%] | Isomerization ratio Arabinose NaOH [3] [%] | Isomerization ratio Arabinose Electrolytic water [3] [%] | Isomerization ratio Ribose NaOH [4] [%] | Isomerization ratio Ribose Electrolytic water [4] [%] | Isomerization ratio Lactose NaOH [5] [%] | Isomerization ratio Lactose Electrolytic water [5] [%] | Isomerization ratio Xylose NaOH [6] [%] | Isomerization ratio Xylose Electrolytic water [6] [%] | Isomerization ratio Maltose NaOH [7] [%] | Isomerization ratio Maltose Electrolytic water [7] [%] | isomerization ratio in equilibrium (glucose isomerase) [%] | Isomerization ratio (%) ([8]; Run 1 (Ge), glucose concentration 14%, pH of reaction mixture 7.17, electrolytic water, 80° C., 1-3 hours) | Isomerization ratio (%) ([8]; Run 3 (Ge), glucose concentration 7%, pH of reaction mixture 7.52, electrolytic water, 80° C., 1-3 hours) | Isomerization ratio (%) ([8]; Run 5 (Ge), glucose concentration 14%, pH of reaction mixture 7.81, electrolytic water, 80° C., 1-3 hours) | Isomerization ratio (%) ([8]; Run 7 (Ge), glucose concentration 7%, pH of reaction mixture 8.15, electrolytic water, 80° C., 1-3 hours) | Isomerization ratio (%) ([8]; Run 9 (Na, Ge), sodium hydroxide, glucose concentration 14%, pH of reaction mixture 8.61, 80° C.)
1 | C[CH](CC(=O)O)[Ge](=[O])[O][Ge](=[O])[CH](C)CC(=O)O (centres unmarked) [Compound 2] | 22.6 | 11.4 | 97.9 | 95.8 | 20.3 | 10.1 | 41.8 | 12.8 | 68.3 | 43.4 | 20.3 | 7.2 | 67.4 | 44.4 | – | – | – | – | – | –
2 | CC([CH2][Ge](=[O])[O][Ge](=[O])[CH2]C(C)C(=O)O)C(=O)O (centres unmarked) [Compound 3] | 21.3 | 9.3 | 96.3 | 86.2 | 18.5 | 10.2 | 30.0 | 17.4 | 74.1 | 28.9 | 24.5 | 7.6 | 53.7 | 43.7 | – | – | – | – | – | –
3 | CC(C(=O)O)[CH](C)[Ge](=[O])[O][Ge](=[O])[CH](C)C(C)C(=O)O (centres unmarked) [Compound 4] | 22.4 | 10.6 | 96.4 | 77.6 | 14.3 | 7.0 | 36.3 | 10.3 | 66.4 | 17.7 | 22.3 | 7.0 | 46.5 | 36.2 | – | – | – | – | – | –
4 | C[C](C)(CC(=O)O)[Ge](=[O])[O][Ge](=[O])[C](C)(C)CC(=O)O [Compound 5] | 20.5 | 9.7 | 93.4 | 75.3 | 17.8 | 3.4 | 37.6 | 8.6 | 68.8 | 17.2 | 20.3 | 6.1 | 69.4 | 38.4 | – | – | – | – | – | –
5 | O=C(O)C[CH](c1ccccc1)[Ge](=[O])[O][Ge](=[O])[CH](CC(=O)O)c1ccccc1 (centres unmarked) [Compound 6] | 22.8 | 16.4 | 94.8 | 83.8 | 24.4 | 13.4 | 40.1 | 11.3 | 73.6 | 15.5 | 33.2 | 8.3 | 69.3 | 20.0 | – | – | – | – | – | –
6 | NC([CH2][Ge](=[O])[O][Ge](=[O])[CH2]C(N)C(=O)O)C(=O)O (centres unmarked) [Compound 18] | – | – | – | – | – | – | – | – | – | – | – | – | – | – | 80 | 48.0 | 73.1 | 65.0 | 94.7 | 98.9
7 | NC(C(=O)O)[CH](c1ccccc1)[Ge](=[O])[O][Ge](=[O])[CH](c1ccccc1)C(N)C(=O)O (centres unmarked) [Compound 23] | – | – | – | – | – | – | – | – | – | – | – | – | – | – | 99 | – | – | – | – | –
